Laboratory results as given in patent publication US11208412B2 (DAEGU-GYEONGBUK MEDICAL INNOVATION FOUNDATION, priority 2017, dated 2021).
Read-outs that look alike come from different tables or passages of the source.

How the values were obtained:
Assay in all cases: Kinase selectivity, DiscoverX scanMAX Kinase assay panel (% control)
Format in all cases: binding
[1] = molecular target: T1, kinases of the scanMAX Kinase assay panel (Homo sapiens, UniProt Q9Y2K2); settings: QSK; 1 uM
T1 construct: purchased DiscoverX Co. (contract measurement) scanMAX Kinase assay panel
Method in brief: (§1)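 Compounds tested at 1 uM against the scanMAX kinase panel. Signal expressed as % control = (compound − positive control)/(DMSO negative control − positive control) × 100, where positive control = 0% and DMSO = 100%; below 35% counted as activity on that kinase.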

[2] = molecular target: T2, kinases of the scanMAX Kinase assay panel (Homo sapiens, UniProt O14578); settings: CIT; 1 uM
T2 construct: purchased DiscoverX Co. (contract measurement) scanMAX Kinase assay panel
Method in brief: as §1

[3] = molecular target: T3, kinases of the scanMAX Kinase assay panel (Homo sapiens, UniProt P54762); settings: EPHB1; 1 uM
T3 construct: purchased DiscoverX Co. (contract measurement) scanMAX Kinase assay panel
T3 sequence (P54762 18-984): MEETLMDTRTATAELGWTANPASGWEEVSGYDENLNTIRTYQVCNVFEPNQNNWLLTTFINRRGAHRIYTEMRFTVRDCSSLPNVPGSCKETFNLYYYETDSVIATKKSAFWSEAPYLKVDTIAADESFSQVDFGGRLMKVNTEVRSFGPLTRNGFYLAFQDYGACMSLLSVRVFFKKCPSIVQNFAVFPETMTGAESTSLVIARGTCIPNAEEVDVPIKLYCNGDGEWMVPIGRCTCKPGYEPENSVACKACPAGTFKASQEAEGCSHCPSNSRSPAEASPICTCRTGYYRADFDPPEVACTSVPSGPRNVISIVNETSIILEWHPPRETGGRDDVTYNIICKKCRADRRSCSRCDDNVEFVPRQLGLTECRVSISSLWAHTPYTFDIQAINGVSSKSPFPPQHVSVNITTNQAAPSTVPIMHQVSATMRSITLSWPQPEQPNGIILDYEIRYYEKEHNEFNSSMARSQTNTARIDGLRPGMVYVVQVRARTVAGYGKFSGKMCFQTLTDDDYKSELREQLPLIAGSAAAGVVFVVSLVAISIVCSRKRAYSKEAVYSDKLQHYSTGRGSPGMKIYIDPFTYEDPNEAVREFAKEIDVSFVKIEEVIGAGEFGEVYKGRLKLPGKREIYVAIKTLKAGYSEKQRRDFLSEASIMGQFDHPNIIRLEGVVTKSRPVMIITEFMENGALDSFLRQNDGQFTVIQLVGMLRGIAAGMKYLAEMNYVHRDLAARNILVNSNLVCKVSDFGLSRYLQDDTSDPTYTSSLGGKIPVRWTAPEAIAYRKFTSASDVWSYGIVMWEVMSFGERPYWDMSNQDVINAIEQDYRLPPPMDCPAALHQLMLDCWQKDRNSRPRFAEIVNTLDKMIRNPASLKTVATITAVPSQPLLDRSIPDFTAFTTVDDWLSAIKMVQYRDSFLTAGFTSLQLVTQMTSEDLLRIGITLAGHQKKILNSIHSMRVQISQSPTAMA
Method in brief: as §1

[4] = molecular target: T4, kinases of the scanMAX Kinase assay panel (Homo sapiens, UniProt P21860); settings: ERBB3; 1 uM
T4 construct: purchased DiscoverX Co. (contract measurement) scanMAX Kinase assay panel
Method in brief: as §1

[5] = molecular target: T5, kinases of the scanMAX Kinase assay panel (Homo sapiens, UniProt Q07912); settings: kinase TNK2; 1 uM in DMSO
T5 construct: purchased DiscoverX Co. (contract measurement) scanMAX Kinase assay panel
Method in brief: as §1

[6] = molecular target: T6, kinases of the scanMAX Kinase assay panel (Homo sapiens, UniProt P04626); settings: ERBB2; 1 uM
T6 construct: purchased DiscoverX Co. (contract measurement) scanMAX Kinase assay panel
Method in brief: as §1

[7] = molecular target: T7, kinases of the scanMAX Kinase assay panel (Homo sapiens, UniProt P10721, L576P); settings: KIT(L576P); 1 uM
T7 construct: purchased DiscoverX Co. (contract measurement) scanMAX Kinase assay panel
Method in brief: as §1

[8] = molecular target: T8, kinases of the scanMAX Kinase assay panel (Homo sapiens, UniProt Q15418); settings: 1 uM in DMSO
T8 construct: purchased DiscoverX Co. (contract measurement) scanMAX Kinase assay panel
Method in brief: as §1

[9] = molecular target: T9, kinases of the scanMAX Kinase assay panel (Homo sapiens, UniProt P51957); settings: NEK4; 1 uM
T9 construct: purchased DiscoverX Co. (contract measurement) scanMAX Kinase assay panel
Method in brief: as §1

[10] = molecular target: T10, kinases of the scanMAX Kinase assay panel (Homo sapiens, UniProt Q00536); settings: PCTK1; 1 uM
T10 construct: purchased DiscoverX Co. (contract measurement) scanMAX Kinase assay panel
Method in brief: as §1

[11] = molecular target: T11, kinases of the scanMAX Kinase assay panel (Homo sapiens, UniProt P42336); settings: PIK3CA; 1 uM
T11 construct: purchased DiscoverX Co. (contract measurement) scanMAX Kinase assay panel
Method in brief: as §1

[12] = molecular target: T12, kinases of the scanMAX Kinase assay panel (Homo sapiens, UniProt P00533, G719C); settings: EGFR(G719C); 1 uM
T12 construct: purchased DiscoverX Co. (contract measurement) scanMAX Kinase assay panel
Method in brief: as §1

[13] = kinase RSK1(Kin.Dom.1-N-terminal), read-out: % control, RSK1(Kin.Dom.1-N-terminal)
[14] = kinase RSK1(Kin.Dom.2-C-terminal), read-out: % control, RSK1(Kin.Dom.2-C-terminal)

T5 sequence (Q07912 whole entry): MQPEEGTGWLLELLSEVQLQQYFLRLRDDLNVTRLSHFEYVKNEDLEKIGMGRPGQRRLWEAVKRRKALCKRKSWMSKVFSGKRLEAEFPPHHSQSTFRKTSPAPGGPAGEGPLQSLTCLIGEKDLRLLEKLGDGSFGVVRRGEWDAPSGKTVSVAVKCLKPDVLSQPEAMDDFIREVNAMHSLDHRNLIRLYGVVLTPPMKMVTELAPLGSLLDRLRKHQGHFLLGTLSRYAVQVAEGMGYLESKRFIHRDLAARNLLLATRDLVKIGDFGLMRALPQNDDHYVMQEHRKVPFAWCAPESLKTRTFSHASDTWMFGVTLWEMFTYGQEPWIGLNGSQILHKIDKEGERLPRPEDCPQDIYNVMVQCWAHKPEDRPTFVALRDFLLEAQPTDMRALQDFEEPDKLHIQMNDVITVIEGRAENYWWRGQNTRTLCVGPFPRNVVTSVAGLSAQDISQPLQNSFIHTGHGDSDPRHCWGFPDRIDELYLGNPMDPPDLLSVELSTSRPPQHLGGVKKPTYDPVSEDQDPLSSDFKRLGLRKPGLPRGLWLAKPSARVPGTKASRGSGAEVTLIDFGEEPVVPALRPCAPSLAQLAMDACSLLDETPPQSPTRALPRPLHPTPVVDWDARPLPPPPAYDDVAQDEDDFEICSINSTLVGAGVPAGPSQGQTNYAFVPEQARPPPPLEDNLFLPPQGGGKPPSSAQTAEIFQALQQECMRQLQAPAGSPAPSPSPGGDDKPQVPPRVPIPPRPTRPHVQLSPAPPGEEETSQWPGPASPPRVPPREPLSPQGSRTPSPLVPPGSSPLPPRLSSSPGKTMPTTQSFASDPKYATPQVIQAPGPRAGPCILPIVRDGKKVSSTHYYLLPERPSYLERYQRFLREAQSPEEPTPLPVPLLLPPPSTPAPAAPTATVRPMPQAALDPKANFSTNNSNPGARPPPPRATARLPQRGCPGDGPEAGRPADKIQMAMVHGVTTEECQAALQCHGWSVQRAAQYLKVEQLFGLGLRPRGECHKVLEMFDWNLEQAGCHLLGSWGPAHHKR
T4 sequence (P21860 20-1342): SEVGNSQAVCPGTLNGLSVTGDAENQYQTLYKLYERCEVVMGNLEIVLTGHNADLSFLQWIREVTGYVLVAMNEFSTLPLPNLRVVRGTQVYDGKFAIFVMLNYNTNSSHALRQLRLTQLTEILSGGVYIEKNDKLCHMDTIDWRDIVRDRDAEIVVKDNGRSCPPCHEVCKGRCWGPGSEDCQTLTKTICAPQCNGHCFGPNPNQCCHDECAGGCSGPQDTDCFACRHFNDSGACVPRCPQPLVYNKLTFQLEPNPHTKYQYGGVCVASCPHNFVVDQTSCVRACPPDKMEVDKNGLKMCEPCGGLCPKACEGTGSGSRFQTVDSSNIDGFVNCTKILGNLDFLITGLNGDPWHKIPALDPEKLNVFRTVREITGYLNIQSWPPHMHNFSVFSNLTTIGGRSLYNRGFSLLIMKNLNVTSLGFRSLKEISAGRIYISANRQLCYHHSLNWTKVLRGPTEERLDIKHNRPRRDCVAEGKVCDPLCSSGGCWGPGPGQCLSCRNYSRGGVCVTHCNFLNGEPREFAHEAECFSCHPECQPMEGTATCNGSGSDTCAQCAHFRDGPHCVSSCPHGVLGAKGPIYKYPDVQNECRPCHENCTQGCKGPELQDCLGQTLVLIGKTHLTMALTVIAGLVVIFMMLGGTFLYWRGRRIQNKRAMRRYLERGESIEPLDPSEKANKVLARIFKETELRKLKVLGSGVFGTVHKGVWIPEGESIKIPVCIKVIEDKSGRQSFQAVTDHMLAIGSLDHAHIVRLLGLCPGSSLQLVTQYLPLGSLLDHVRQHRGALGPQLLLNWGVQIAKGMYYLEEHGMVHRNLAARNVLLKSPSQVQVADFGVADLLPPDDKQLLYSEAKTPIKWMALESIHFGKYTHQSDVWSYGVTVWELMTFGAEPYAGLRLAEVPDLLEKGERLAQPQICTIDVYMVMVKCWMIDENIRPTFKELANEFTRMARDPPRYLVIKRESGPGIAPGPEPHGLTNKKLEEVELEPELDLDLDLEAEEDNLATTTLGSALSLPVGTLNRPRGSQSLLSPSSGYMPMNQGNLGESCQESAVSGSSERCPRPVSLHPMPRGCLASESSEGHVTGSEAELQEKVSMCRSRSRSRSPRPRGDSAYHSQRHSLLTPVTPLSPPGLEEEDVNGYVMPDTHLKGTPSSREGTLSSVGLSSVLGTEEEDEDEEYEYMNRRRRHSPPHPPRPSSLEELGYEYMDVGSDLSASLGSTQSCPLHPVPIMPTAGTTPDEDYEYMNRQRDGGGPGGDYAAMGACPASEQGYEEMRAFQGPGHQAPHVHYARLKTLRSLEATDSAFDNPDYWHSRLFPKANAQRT
T7 sequence (P10721 26-976 L576P): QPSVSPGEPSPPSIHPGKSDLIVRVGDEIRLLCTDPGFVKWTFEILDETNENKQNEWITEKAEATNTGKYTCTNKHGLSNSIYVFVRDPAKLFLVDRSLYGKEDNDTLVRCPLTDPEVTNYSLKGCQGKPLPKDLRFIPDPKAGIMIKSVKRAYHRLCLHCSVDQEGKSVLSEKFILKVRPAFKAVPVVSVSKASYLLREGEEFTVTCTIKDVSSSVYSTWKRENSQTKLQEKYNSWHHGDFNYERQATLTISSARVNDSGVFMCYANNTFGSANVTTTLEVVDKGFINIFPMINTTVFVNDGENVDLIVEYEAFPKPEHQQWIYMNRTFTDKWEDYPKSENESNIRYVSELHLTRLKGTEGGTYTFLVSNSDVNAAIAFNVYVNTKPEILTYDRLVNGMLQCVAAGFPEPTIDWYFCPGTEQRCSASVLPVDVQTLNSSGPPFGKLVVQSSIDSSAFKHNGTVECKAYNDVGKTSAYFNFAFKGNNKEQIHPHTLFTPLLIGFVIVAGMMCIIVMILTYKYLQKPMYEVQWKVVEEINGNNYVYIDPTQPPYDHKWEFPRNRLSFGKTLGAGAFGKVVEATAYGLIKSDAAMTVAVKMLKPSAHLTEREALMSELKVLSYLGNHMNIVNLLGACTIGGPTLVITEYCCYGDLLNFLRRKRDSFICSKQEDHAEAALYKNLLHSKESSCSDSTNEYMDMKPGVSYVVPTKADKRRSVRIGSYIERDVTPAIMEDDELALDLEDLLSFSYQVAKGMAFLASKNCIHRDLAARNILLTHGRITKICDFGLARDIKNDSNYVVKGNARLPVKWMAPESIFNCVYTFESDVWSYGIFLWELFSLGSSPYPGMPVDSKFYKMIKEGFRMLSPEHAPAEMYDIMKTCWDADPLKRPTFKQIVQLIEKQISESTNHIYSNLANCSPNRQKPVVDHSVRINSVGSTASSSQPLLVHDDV
T10 sequence (Q00536 whole entry): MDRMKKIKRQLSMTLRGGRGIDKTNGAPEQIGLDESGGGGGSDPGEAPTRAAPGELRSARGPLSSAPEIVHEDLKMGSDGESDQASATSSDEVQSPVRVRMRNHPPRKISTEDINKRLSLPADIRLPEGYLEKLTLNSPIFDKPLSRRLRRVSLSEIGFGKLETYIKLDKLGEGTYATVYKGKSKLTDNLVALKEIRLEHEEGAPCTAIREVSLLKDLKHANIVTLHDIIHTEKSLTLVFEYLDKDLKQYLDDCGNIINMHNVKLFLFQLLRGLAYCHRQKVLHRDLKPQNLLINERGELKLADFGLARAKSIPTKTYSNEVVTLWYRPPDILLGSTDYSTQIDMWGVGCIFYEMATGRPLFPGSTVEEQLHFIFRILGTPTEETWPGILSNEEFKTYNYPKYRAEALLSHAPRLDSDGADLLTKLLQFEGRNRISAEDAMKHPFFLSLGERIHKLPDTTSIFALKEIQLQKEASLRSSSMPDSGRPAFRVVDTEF
T6 sequence (P04626 23-1255): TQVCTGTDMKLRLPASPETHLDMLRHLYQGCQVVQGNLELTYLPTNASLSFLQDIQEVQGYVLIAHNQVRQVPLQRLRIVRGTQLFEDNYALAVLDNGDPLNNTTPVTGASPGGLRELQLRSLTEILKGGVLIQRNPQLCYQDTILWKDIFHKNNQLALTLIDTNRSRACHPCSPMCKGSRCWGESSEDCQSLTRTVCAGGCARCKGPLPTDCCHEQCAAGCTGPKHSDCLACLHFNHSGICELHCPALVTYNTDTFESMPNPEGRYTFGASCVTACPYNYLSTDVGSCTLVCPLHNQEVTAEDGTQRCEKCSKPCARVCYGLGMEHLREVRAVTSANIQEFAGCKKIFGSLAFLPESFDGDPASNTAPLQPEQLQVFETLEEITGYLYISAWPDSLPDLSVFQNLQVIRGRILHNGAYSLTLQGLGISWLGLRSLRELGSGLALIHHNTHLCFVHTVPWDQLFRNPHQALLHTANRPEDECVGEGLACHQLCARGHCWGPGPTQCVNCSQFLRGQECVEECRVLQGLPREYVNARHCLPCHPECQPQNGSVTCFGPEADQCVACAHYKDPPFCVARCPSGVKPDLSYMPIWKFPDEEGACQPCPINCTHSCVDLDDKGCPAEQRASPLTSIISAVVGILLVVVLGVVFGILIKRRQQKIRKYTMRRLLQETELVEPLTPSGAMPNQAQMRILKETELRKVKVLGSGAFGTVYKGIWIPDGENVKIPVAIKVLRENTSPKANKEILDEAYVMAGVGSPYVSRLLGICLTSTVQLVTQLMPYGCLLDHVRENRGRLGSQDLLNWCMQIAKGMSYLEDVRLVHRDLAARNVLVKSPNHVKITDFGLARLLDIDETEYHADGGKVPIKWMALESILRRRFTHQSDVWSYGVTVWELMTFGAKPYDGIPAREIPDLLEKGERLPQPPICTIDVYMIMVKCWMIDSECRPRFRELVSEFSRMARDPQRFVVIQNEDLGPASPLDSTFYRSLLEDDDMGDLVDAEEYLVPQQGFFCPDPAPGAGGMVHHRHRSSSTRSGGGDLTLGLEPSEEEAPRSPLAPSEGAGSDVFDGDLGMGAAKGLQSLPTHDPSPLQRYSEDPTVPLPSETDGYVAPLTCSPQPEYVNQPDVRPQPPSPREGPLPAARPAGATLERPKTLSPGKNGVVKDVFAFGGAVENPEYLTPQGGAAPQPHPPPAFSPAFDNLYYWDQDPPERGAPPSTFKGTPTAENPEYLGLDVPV

**Q.** For `CCNc1nc(Nc2ccc(C(=O)N3CCC(N4CCOCC4)CC3)cc2OC)nc2[nH]cc(C(F)(F)F)c12` [Example 104, (4-((4-(ethylamino)-5-(trifluoromethyl)-7H-pyrrolo[2,3-d]pyrimidine-2-yl)amino)-3-methoxyphenyl)(4-morpholinopiperidine-1-yl)methanone], which remaining binding at 1 µM [1] is on record?
**A.** 97%

**Q.** And the remaining binding at 1 µM [2]?
**A.** 100%

**Q.** And the remaining binding at 1 µM [3]?
**A.** 100%

**Q.** What about the remaining binding at 1 µM [4] of the same compound?
**A.** 100%

**Q.** And the remaining binding at 1 µM [5]?
**A.** 31%

**Q.** And the remaining binding at 1 µM [6]?
**A.** 100%

**Q.** What about the remaining binding at 1 µM [7] of the same compound?
**A.** 47%

**Q.** And the remaining binding at 1 µM [8, 13]?
**A.** 89%

**Q.** What about the remaining binding at 1 µM [8, 14] of the same compound?
**A.** 61%

**Q.** What about the remaining binding at 1 µM [9] of the same compound?
**A.** 100%

**Q.** And the remaining binding at 1 µM [10]?
**A.** 100%

**Q.** What about the remaining binding at 1 µM [11] of the same compound?
**A.** 99%

**Q.** What about the remaining binding at 1 µM [12] of the same compound?
**A.** 96%

**Q.** What does the source list for `CNc1nc(Nc2ccc(C(=O)N3CCOCC3)cc2OC)nc2[nH]cc(C#N)c12` [Example 1, 2-((2-methoxy-4-(morpholine-4-carbonyl)phenyl)amino)-4-(methylamino)-7H-pyrrolo[2,3-d]pyrimidine-5-carbonitrile]?
**A.** remaining binding at 1 µM [1]: 79%; remaining binding at 1 µM [2]: 86%; remaining binding at 1 µM [3]: 100%; remaining binding at 1 µM [4]: 68%; remaining binding at 1 µM [5]: 82%; remaining binding at 1 µM [6]: 79%; remaining binding at 1 µM [7]: 41%; remaining binding at 1 µM [8, 13]: 98%; remaining binding at 1 µM [8, 14]: 59%; remaining binding at 1 µM [9]: 75%; remaining binding at 1 µM [10]: 77%; remaining binding at 1 µM [11]: 87%; remaining binding at 1 µM [12]: 82%

**Q.** Which remaining binding at 1 µM [1] does the source give for `CC1(Nc2nc(Nc3cnn([C@H]4CCN(C5COC5)C[C@@H]4F)c3Cl)nc3[nH]cc(C#N)c23)CC1` [Example 52, 2-((5-chloro-1-((3S,4S)-3-fluoro-1-(oxetane-3-yl)piperidine-4-yl)-1H-pyrazole-4-yl)amino)((1-methylcyclopropyl)amino)-7H-pyrrolo[2,3-d]pyrimidine-5-carbonitrile] here?
**A.** 87%

**Q.** What about the remaining binding at 1 µM [2] of the same compound?
**A.** 76%

**Q.** And the remaining binding at 1 µM [3]?
**A.** 41%

**Q.** And the remaining binding at 1 µM [4]?
**A.** 100%

**Q.** And the remaining binding at 1 µM [5]?
**A.** 0.9%

**Q.** And the remaining binding at 1 µM [6]?
**A.** 100%

**Q.** And the remaining binding at 1 µM [7]?
**A.** 0%

**Q.** What about the remaining binding at 1 µM [8, 13] of the same compound?
**A.** 2.4%

**Q.** What about the remaining binding at 1 µM [8, 14] of the same compound?
**A.** 52%

**Q.** What about the remaining binding at 1 µM [9] of the same compound?
**A.** 100%

**Q.** What about the remaining binding at 1 µM [10] of the same compound?
**A.** 100%

**Q.** And the remaining binding at 1 µM [11]?
**A.** 60%

**Q.** What about the remaining binding at 1 µM [12] of the same compound?
**A.** 71%
